{"source": "the NIST ThermoML archive (doi:10.1021/acs.jced.8b00460)", "settings": "511.35 K; Liquid; Ebulliometric method (Recirculating still)", "note": "± gives the expanded uncertainty stated by the source."}
{"smiles": "O=C(OCCOCCOC(=O)c1ccccc1)c1ccccc1", "note": "[diethylene glycol dibenzoate]", "values": [{"measurement": "vapor or sublimation pressure", "value": "1.015 ± 0.1", "unit": "kPa"}]}
